Experimental data as given in patent publication US7192731B2, “Methods for efficient extraction of carotenoids using an esterase” (The State of Israel, Ministry of Agriculture & Rural …, priority 2001, dated 2007).

Key:
lipase = assay: Effect of CaCl2 and NaCl on lipase activity (deestrification of red-pepper carotenoids); format: biochemical; details: 150 mM NaCl without CaCl2
Method: The activity of lipase at pH 7.6 at 37.0° C. for 18 hours on the deestrification of red-pepper carotenoids was measured in the presence of CaCl2 and NaCl.

[1] = Enzymatic deesterification of paprika oleoresin carotenoids by lipases, HPLC; format: biochemical; details: similar assays, 37° C.
Method: HPLC was conducted on a Shimadzu LC-10 AT equipped with SCL-10A Shimadzu diode array detector. Photodiode array measurements of spectral properties from the individual peaks (from 260 to 540 nm) were determined at the upslope, apex and downslope. The column (Merck RP-18e 3.4×250 […], 5-μm particles) was used for HPLC separations. The peaks were detected at 450 and 474 nm.
Paprika oleoresin (20 mg) was mixed with TWEEN-20 (200 μl) or deoxycholate (100 mg) and 10 ml of H2O. The emulsion has been shaken at 37° C. for 24 hours. Extraction of carotenoids was performed by the addition of 4 ml of ethanol and 5 ml of hexane. The extraction with hexane was done repeatedly until no color could be observed in the extracts. The combined hexane extracts were washed with water (25 ml) and dried over anhydrous sodium sulfate for HPLC determination of the carotenoids.
Immobilized lipase from Candida rugosa (Sigma-Aldrich Corp., St Louis, Mo.). Following use in deesterification, the enzyme-bearing beads are recovered by precipitation at 15 K RPM, and stored at 4° C. until reuse.
Immobilized lipase beads may be recycled by precipitation, and reused. […] FIG. 8 compares the efficiency of deesterification with fresh, once-, and twice-recycled immobilized lipase, quantifying the efficient reuse of the immobilized enzyme with paprika oleoresin. […]

| Molecule | deestrification (lipase) [%] | deesterification of paprika carotenoids compared with lipase amano 30 [1] |
| --- | --- | --- |
| [Cl-].[Na+] [NaCl] | 87 | – |
| pancreatic lipase: pancreatic lipase from porcine, Sigma (protein, UniProt P00591 1-450, looked up) Pancreatic triacylglycerol …: SEVCFPRLGCFSDDAPWAGIVQRPLKILPWSPKDVDTRFLLYTNQNQNNYQELVADPSTITNSNFRMDRKTRFIIHGFIDKGEEDWLSNICKNLFKVESVNCICVDWKGGSRTGYTQASQNIRIVGAEVAYFVEVLKSSLGYSPSNVHVIGHSLGSHAAGEAGRRTNGTIERITGLDPAEPCFQGTPELVRLDPSDAKFVDVIHTDAAPIIPNLGFGMSQTVGHLDFFPNGGKQMPGCQKNILSQIVDIDGIWEGTRDFVACNHLRSYKYYADSILNPDGFAGFPCDSYNVFTANKCFPCPSEGCPQMGHYADRFPGKTNGVSQVFYLNTGDASNFARWRYKVSVTLSGKKVTGHILVSLFGNEGNSRQYEIYKGTLQPDNTHSDEFDSDVEVGDLQKVKFIWYNNNVINPTLPRVGASKITVERNDGKVYDFCSQETVREEVLLTLNPC | – | far poorer results |
